# Measurements: patent publication US10471035B2, “Compositions and methods for using esters of meroterpenes and of other resveratrol analogues” (Sunny BioDiscovery, priority 2014, dated 2019)
# How the values were obtained:
# [1] = system: UVA-irradiated epidermal substitutes cultured on adult fibroblast monolayer; experiment: Gene expression in UVA-irradiated epidermal substitutes; GEO matching; type: cell-based
# Excerpt: (GSE: GEO Series; GPL: GEO Platforms; stats between −0.05 and 0.05 considered not significant match).
# (GSE: GEO Series; GPL: GEO Platforms; stats between −0.05 and 0.05 considered not a significant match).
# [2] = UVB irradiation, HPLC-MS profile; type: physicochemical
# Excerpt: Both compounds were irradiated with UVB light and their HPLC-MS profile was compared to their respective non-irradiated controls. FIGS. 2, 3, 6, and 7 show HPLC chromatograms of UVB-irradiated (lower portions) and non-irradiated samples (upper portions) of bakuchiol (FIGS. 2 and 3) and SBD.SE (FIGS. 6 and 7) detected at 254 nm (FIGS. 2 and 6) and 230 nm (FIGS. 3 and 7).
# [3] = system: RAR; experiment: Cignal RAR reporter assay; type: cell-based; conditions: up to 50 μg/ml
# Excerpt: Tissue irritation is a common side effect of retinoids. It is mediated, at least in part, by retinoid interaction with retinoic acid receptors (RARs; Thacher S M, Vasudevan J, Chandraratna R A. Therapeutic applications for ligands of retinoid receptors. Curr Pharm Des. 2000 January; 6(1):25-58; Kambayashi H, Odake Y, Takada K, Funasaka Y, Ichihashi M, Kato S. N-retinoyl-D-glucosamine, a new retinoic acid agonist, mediates topical retinoid efficacy with no irritation on photoaged skin. Br J Dermatol. 2005 December; 153 Suppl 2:30-6).
smiles,measurement,setting,value
"C=C[C@@](C)(/C=C/c1ccc(OC(=O)c2ccccc2O)cc1)CCC=C(C)C [SBD.SE, Salicylic acid ester of bakuchiol]",GEO match Stat,"[1]; vitro122 keratinocytes PD98059 24/48 HRS -VS- keratinocytes untreated (GSE50591/GPL571), not matching retinol palmitate",−0.082
same,GEO match Stat,"[1]; vitro124 keratinocytes SP60125 SB203580 PD98059 24/48 HRS -VS- keratinocytes untreated (GSE50591/GPL571), not matching retinol palmitate",−0.116
same,GEO match Stat,"[1]; vitro128 keratinocytes mitomycin C 18 hrs -VS- keratincytes untreated (GSE50568/GPL570), not matching retinol palmitate",−0.147
same,GEO match Stat,[1]; vitro129 keratinocytes N/Tert immortalized -VS- keratinocytes empty vector (GSE50568/GPL570),0.105
same,GEO match Stat,[1]; vitro131 reconstituted epidermis scabies mite extract -VS- reconstituted epidermis untreated (GSE48459/GPL6244),−0.105
same,GEO match Stat,[1]; vitro132 HaCaT keratinocytes cidofovir -VS- HaCaT keratinocytes untreated (GSE39293/GPL570),−0.116
same,GEO match Stat,[1]; vitro134 keratinocytes keloid -VS- keratinocytes uninvolved (GSE44270/GPL6244),0.153
same,GEO match Stat,[1]; vitro137 N/TERT-1 keratinocytes miR-198 -VS- N/TERT-1 keratinocytes control (GSE37967/GPL10558),0.197
same,GEO match Stat,[1]; vitro139 HaCaT keratinocytes miR-483-3p overexpression -VS- HaCaT keratinocytes control (GSE19931/GPL1456),−0.08
same,GEO match Stat,[1]; vitro145 HaCaT keratinocytes cobalt(II) chloride 3 hrs -VS- HaCaT keratinocytes water control (GSE16727/GPL4133),0.1
same,GEO match Stat,"[1]; vitro147 HaCaT keratinocytes tungsten carbide cobalt 3 days -VS- HaCaT keratinocytes water control (GSE16727/GPL4133), not matching retinol palmitate",0.09
same,GEO match Stat,[1]; vitro148 HaCaT keratinocytes cobalt(II) chloride 3 hrs -VS- HaCaT keratinocytes water control (GSE16727/GPL4133),0.122
same,GEO match Stat,[1]; vitro150 reconstituted epidermis 0 hrs after 10 cGy radiation -VS- reconstituted epidermis control (GSE29344/GPL6883),−0.073
same,GEO match Stat,[1]; vitro151 reconstituted epidermis 3 hrs after 10 cGy radiation -VS- reconstituted epidermis control (GSE29344/GPL6883),−0.088
same,GEO match Stat,[1]; vitro152 reconstituted epidermis 8 hrs after 10 cGy radiation -VS- reconstituted epidermis control (GSE29344/GPL6883),−0.078
same,GEO match Stat,[1]; vitro153 reconstituted epidermis 24 hrs after 10 cGy radiation -VS- reconstituted epidermis control (GSE29344/GPL6883),−0.154
same,GEO match Stat,[1]; vitro156 reconstituted epidermis 8 hrs after 100 cGy radiation -VS- reconstituted epidermis control (GSE29344/GPL6883),−0.119
same,GEO match Stat,"[1]; vitro160 HaCaT keratinocytes 5′-aza-2-deoxycytidine -VS- HaCaT keratinocytes untreated (GSE33493/GPL6883), not matching retinol palmitate",−0.098
same,GEO match Stat,[1]; vitro165 HaCaT keratinocytes Ino-C2-PAF + IL1A + IL17 + IL22 + TNF + OsM -VS- HaCaT keratinocytes untreated (GSE37361/GPL13607),−0.119
same,GEO match Stat,"[1]; vivo1 PP skin -VS- PN skin (GSE2737/GPL91), not matching retinol palmitate",0.085
same,GEO match Stat,"[1]; vivo6 PP skin -VS- PN skin (GSE26866/GPL571), not matching retinol palmitate",0.127
same,GEO match Stat,"[1]; vivo7 PP skin -VS- PN skin (GSE30999/GPL570), not matching retinol palmitate",0.115
same,GEO match Stat,"[1]; vivo8 PP skin -VS- NN skin (GSE13355/GPL570), not matching retinol palmitate",0.123
same,GEO match Stat,"[1]; vivo9 PP skin -VS- NN skin (GSE14905/GPL570), not matching retinol palmitate",0.132
same,GEO match Stat,"[1]; vivo12 PP epidermis -VS- PN epidermis (GSE26866/GPL571), not matching retinol palmitate",0.084
same,GEO match Stat,"[1]; vivo15 PP skin 1 wk etanercept -VS- PN skin baseline (GSE11903/GPL571), not matching retinol palmitate",0.108
same,GEO match Stat,"[1]; vivo19 PP skin etanercept 1 wk -VS- PP skin baseline (GSE11903/GPL571), not matching retinol palmitate",−0.134
same,GEO match Stat,[1]; vivo25 PN skin IFNg-treated 24 hrs -VS- PN skin baseline (GSE32407/GPL571),−0.11
same,GEO match Stat,[1]; vivo26 PN skin IFNg-treated 24 hrs -VS- PN skin placebo 24 hrs (GSE32407/GPL571),−0.119
same,GEO match Stat,[1]; vivo27 NN skin IFNg-treated 24 hrs -VS- NN skin baseline (GSE32407/GPL571),−0.09
same,GEO match Stat,[1]; vivo32 atopic dermatitis uninvolved epidermis -VS- NN epidermis (GSE26952/GPL2700),0.098
same,GEO match Stat,[1]; vivo42 atopic dermatitis lesion -VS- NN skin (GSE5667/GPL96 + GPL97),0.11
same,GEO match Stat,[1]; vivo43 atopic dermatitis lesion -VS- uninvolved skin (GSE5667/GPL96 + GPL97),0.111
same,GEO match Stat,[1]; vivo49 epidermis sodium lauryl sulphate 11 days -VS- epidermis basline (GSE18206/GPL570),0.152
same,GEO match Stat,[1]; vivo50 epidermis nonanoic acid 30 min -VS- epidermis basline (GSE18206/GPL570),0.125
same,GEO match Stat,[1]; vivo51 epidermis nonanoic acid 4 hrs -VS- epidermis basline (GSE18206/GPL570),0.103
same,GEO match Stat,[1]; vivo53 epidermis nonanoic acid 11 days -VS- epidermis basline (GSE18206/GPL570),0.17
same,GEO match Stat,"[1]; vivo59 wound margin 7+ days healed -VS- NN skin (GSE8056/GPL570), not matching retinol palmitate",0.094
same,GEO match Stat,"[1]; vivo73 skin diffuse cutaneous systemic sclerosis -VS- NN skin (GSE32413/GPL4133), not matching retinol palmitate",0.088
same,GEO match Stat,"[1]; vivo76 skin isotretinoin 8 wks -VS- skin baseline (GSE11792/GPL571), not matching retinol palmitate",−0.128
same,GEO match Stat,[1]; vivo82 skin Haemophilus ducreyi infected -VS- skin PBS treated (GSE5547/GPL570),−0.105
same,GEO match Stat,"[1]; vivo83 basal cell carcinoma -VS- NN skin (GSE7553/GPL570), not matching retinol palmitate",0.081
same,GEO match Stat,"[1]; vivo85 squamous cell carcinoma -VS- NN skin (GSE7553/GPL570), not matching retinol palmitate",0.12
same,GEO match Stat,"[1]; vivo88 squamous cell carcinoma -VS- NN skin (GSE2503/GPL96), not matching retinol palmitate",0.111
same,GEO match Stat,"[1]; vivo93 melanoma in situ -VS- NN skin (GSE4587/GPL570), not matching retinol palmitate",0.102
same,GEO match Stat (inverse correlation with SBD.SE effect),[1]; vivo99 UVB radiation 1 minimal erythema dose -VS- untreated skin (GSE22083/GPL96),−0.088
same,GEO match Stat (inverse correlation with SBD.SE effect),[1]; vivo100 UVB radiation 100 J/m2 -VS- untreated skin (GSE22083/GPL96),−0.102
same,GEO match Stat (inverse correlation with SBD.SE effect),[1]; vivo101 UVA radiation 0.1 minimal erythema dose -VS- untreated skin (GSE22083/GPL96),−0.096
same,GEO match Stat,"[1]; vivo110 reticular dermis -VS- NN Skin (GSE42114/GPL570), not matching retinol palmitate",−0.074
same,GEO match Stat,[1]; vivo114 dermatomyositis -VS- NN Skin (GSE46239/GPL570),0.116
same,GEO match Stat,"[1]; vivo115 seborrheic keratosis -VS- uninvolved Skin (GSE22998/(GPL570)), not matching retinol palmitate",0.075
same,GEO match Stat,"[1]; vivo116 eschars in mediterranean spotted fever -VS- NN Skin (GSE32993/GPL6480), not matching retinol palmitate",0.097
same,GEO match Stat,[1]; vivo118 narrow-band UVB 24 hrs -VS- uninvolved skin (GSE41078/GPL571),−0.116
same,GEO match Stat,"[1]; vivo120 atopic dermatitis chronic -VS- uninvolved skin (GSE36842/GPL570), not matching retinol palmitate",0.125
same,stability under UVB irradiation (HPLC-MS),[2],no difference in mass of the peaks
same,transactivation of RAR,[3],no effect
